The record followed here is patent US6521623B1, “N,N'-disubstituted benzimidazolone derivatives with affinity at the serotonin and dopamine receptors” (Boehringer Ingelheim Pharma KG, priority 2000, dated 2003).

For one assay, the target named is T1, D4 human receptors (Homo sapiens, UniProt P21917).
T1 construct: expressed in transfected cells; host or cells: CHO cells
T1 sequence (P21917 1-419): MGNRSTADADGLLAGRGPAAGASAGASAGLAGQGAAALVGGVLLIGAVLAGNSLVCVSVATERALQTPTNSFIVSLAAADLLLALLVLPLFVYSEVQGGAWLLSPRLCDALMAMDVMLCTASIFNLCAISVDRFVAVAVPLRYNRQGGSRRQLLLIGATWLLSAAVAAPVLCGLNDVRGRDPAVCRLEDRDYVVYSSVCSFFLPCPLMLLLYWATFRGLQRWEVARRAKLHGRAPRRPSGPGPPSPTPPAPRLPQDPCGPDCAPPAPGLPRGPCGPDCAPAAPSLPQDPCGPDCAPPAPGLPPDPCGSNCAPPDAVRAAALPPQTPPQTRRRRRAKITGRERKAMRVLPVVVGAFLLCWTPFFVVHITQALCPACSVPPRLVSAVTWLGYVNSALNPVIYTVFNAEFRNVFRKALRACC
The assay is described as follows: D4 Radioligand Receptor Binding Assay ([3H] YM-09151-2, CHO cell membranes). The following applies: compound 10^−7 M, singlicate, [3H] YM-09151-2 0.15-0.25 nM. The method in brief:
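Membranes from CHO cells expressing human D4 receptor incubated with [3H] YM-09151-2 (0.15-0.25 nM) and compound at one concentration (10^−7 M, singlicate) for 120 min at 27° C, then filtered.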

Assay [1] deals with T2, 5-HT1A (Homo sapiens, UniProt P08908).
T2 sequence (P08908 1-422): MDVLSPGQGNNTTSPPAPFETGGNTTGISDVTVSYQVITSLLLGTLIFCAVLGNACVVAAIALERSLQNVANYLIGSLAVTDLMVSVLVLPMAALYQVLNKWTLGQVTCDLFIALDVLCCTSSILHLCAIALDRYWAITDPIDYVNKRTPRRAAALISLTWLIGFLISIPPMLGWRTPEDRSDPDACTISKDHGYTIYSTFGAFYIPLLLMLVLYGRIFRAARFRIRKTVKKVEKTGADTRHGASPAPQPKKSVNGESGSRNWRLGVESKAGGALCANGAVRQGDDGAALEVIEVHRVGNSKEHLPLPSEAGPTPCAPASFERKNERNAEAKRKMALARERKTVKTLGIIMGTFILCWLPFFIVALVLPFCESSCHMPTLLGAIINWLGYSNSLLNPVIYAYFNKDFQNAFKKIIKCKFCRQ
Description: 5-HT1 Functional Assay (cAMP) in CHO/5-HT1A cells. It counts as cell-based. The arrangement: expressed in transfected cells; host or cells: CHO/5-HT1A cells. The method, then:
5-HT1 Functional Assay (cAMP)
CHO/5-HT1A cells were random seeded at a density of about 200,000/well in 24 well plates the day prior to the experiment. On the day of the experiment, cells were pretreated for 15 minutes at 37° C. with 500 μM isobutylmethylxantine (IBMX) dissolved in culture medium without serum. Wells were then divided in different groups in duplicate as follows: control, 10 μM FSK, 10 μM FSK+1 μM 5-HT as positive standard and 10 μM FSK+10 μM of the different compound under evaluation. Sample solutions were added and incubated for additional 15 minutes at 37° C. After incubation, the medium was aspirated and the reaction stopped by adding 200 μl of lysis buffer. Plates were shaken for 5 minutes, then the lysate was removed and samples were stored at 4° C. until the day of the assay. For the cAMP evaluation, samples were properly diluted and the cAMP content was measured by an enzyme immunoassay system.

For assay [2], the target named is T2, 5-HT1A. Description: 5HT1A Radioligand Receptor Binding Assay ([3H]-8-OH-DPAT, CHO cell membranes). The arrangement: expressed in transfected cells; host or cells: CHO cells. Conditions: for inhibition at 0.1 µM: compound 10^−7 M, singlicate, [3H]-8-OH-DPAT 0.6-0.7 nM. The method in brief:
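CHO-cell membranes expressing human 5-HT1A incubated with [3H]-8-OH-DPAT (0.6-0.7 nM) for 60 minutes at 27° C, filtered and scintillation counted; non-specific binding defined with 10^−5 M 5-HT. Compounds tested singly at 10^−7 M as % of control specific binding; IC50 from one-site nonlinear regression.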

In assay [3] the target is 5-HT2A (Mus musculus, UniProt P35363). Description: 5-HT2 Functional Assay (PI Turnover) in cerebral cortex miniprisms. In kind it is biochemical. Conditions: 10 μM compound, inhibition of PI turnover accumulation induced by 100 μM 5-HT. The protocol: 5-H T2 Functional Assay (PI Turnover)
Chain of 5-HT2A (Mus musculus, UniProt P35363) (P35363 whole entry, looked up): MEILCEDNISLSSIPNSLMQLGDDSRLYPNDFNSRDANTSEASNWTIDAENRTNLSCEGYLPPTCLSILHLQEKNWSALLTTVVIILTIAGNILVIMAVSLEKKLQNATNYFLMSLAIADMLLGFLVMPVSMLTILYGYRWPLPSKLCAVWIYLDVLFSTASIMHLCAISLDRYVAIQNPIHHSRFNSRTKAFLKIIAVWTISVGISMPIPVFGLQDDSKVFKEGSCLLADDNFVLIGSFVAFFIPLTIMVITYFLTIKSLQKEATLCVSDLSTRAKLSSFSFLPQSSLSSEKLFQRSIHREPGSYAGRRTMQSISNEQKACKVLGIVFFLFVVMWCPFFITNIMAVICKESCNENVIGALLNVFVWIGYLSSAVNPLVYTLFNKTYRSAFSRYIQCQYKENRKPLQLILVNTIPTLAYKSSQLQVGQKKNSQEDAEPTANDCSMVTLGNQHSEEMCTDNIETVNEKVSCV
Cross-chopped miniprisms (350×350 μm) were prepared from mouse whole cerebral cortices and incubated for 60 minutes at 37° C. in Krebs-Henseleit buffer containing 2 g/l glucose.
Cerebral cortex miniprisms were distributed in vials and incubated for 30 minutes with approximately 170 nM [^3H]-myoinositol (10-20 Ci/mmol) and […] lithium chloride. Samples were divided in different groups in triplicate: control, 100 μM 5-HT, 10 and 30 μM flibanserin+100 μM 5-HT, as standards, and 10 μM of the different compound under investigation+100 μM 5-HT. When 5-HT was added the incubation continued for 45 minutes. Compounds under investigation and flibanserin were added 10 minutes before dispensing 5-HT. Incubation was terminated by the addition of 940 μl chloroform-methanol (1:2 v/v). Further aliquots of chloroform (310 μl) and water (310 μl) were added and labeled inositol phosphates (1 Ps) were extracted from the aqueous phase by ion exchange chromatography using Dowex resin in the formate form. After addition of 10 ml of PicoFluor 40 scintillation cocktail (Packard), the radioactivity present in an aliquot (400 μl) of the aqueous extract was counted by liquid scintillation spectrometry.

Assay [4] deals with T3, 5-HT2A (Rattus norvegicus, UniProt P14842).
T3 construct: Cerebral frontal cortex was homogenized in 10 volumes of ice cold 0.32 M sucrose; from tissue; host or cells: rat cerebral frontal cortex membranes
T3 sequence (P14842 whole entry): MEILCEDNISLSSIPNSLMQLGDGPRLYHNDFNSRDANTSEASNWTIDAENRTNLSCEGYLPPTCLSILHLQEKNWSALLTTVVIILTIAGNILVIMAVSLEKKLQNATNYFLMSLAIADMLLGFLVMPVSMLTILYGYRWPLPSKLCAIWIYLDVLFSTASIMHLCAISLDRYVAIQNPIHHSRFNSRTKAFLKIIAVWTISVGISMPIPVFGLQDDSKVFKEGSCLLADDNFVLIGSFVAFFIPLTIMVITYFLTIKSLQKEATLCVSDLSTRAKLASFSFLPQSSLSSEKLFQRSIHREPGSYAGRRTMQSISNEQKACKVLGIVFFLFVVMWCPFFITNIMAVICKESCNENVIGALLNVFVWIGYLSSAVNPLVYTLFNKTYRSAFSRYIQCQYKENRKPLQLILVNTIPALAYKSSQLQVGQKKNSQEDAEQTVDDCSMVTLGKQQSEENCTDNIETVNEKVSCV
The assay is described as follows: 5-HT2A Radioligand Receptor Binding Assay ([3H]-Ketanserin, cerebral frontal cortex membranes). The following applies: 0.5 nM [3H]-Ketanserin. The protocol: 5-HT2A Radioligand Receptor Binding Assay
Rats (male Sprague-Dawley, 200-250 g) were used. Cerebral frontal cortex was homogenized in 10 volumes of ice cold 0.32 M sucrose in 5 mM Tris-HCl ([…]) buffer. After centrifugation of the homogenate (1,000×g for 10 minutes) the supernatant was then recentrifuged at 48,000×g for 15 minutes. The resulting pellet was gently homogenized in an equal volume of 50 mM Tris-HCl buffer (pH 7.4) and incubated at 37° C. for 10 minutes. Membranes were then collected by centrifugation as above described and finally resuspended in 10 volumes of 50 mM Tris-HCl buffer (pH 7.4).
For displacement experiments membranes (980 μl) were diluted in 50 mM Tris-HCl buffer (pH 7.4) to a final concentration of 1:100 (w/v); the tissue suspension was then incubated at 37° C. for 10 minutes in a final volume of 1 ml in the presence of 0.5 nM [^3H]-Ketanserin. Non-specific binding was determined by incubating similar samples with unlabelled methysergide (100 μM). After incubation, samples prepared in a 24 wells cell culture cluster (Costar) were rapidly filtered by Inotech Cell Harvester (IH 201 filters). The filters were washed three times with 2 ml ice-cold Tris-HCl buffer and placed in polyethylene vials, then 4 ml of Filter Count scintillation cocktail (Packard) were added. The radioactivity present was counted by liquid scintillation spectrometry.
The affinity values (IC50) for the compounds were obtained by a nonlinear least squares regression analysis on the basis of a one binding site model.

[5] abbreviates: [3H]-8-OH-DPAT, CHO membranes, human 5-HT1A, read-out: 5-HT1A Receptor Binding IC50.

Read-outs that look alike come from different tables or passages of the source.

For the compound `O=c1n(CCN2CCOCC2)c2ccccc2n1CCN1CCN(c2cccc(C(F)(F)F)c2)CC1` [Compound 228], the inhibition (in general, the share of the control response that was lost under treatment) at 0.1 µM at D4 human receptors was 33%; at 5-HT1A [2] (CHO membranes, human 5-HT1A), 95%. In addition, at 5-HT1A [1], the inhibition at 10 µM was 82%. Also, the IC50 (in general, the midpoint of a concentration-inhibition curve) on 5-HT1A [2] (setting [5]) was determined as 6 nM.

For `COCCn1c(=O)n(C/C=C\CN2CCN(c3cccc(C(F)(F)F)c3)CC2)c2ccccc21` [Compound 284], 10 µM produced 82% inhibition against 5-HT1A [1]. Moreover, the IC50 on 5-HT1A [2] (setting [5]) worked out at 4.9 nM.

Consider `COCCn1c(=O)n(C/C=C\CN2CC=C(c3ccccc3)CC2)c2ccccc21` [Compound 285], for which the inhibition at 0.1 µM on D4 human receptors stood at 32%; at 5-HT1A [2] (CHO membranes, human 5-HT1A), 96%. The compound also gave an inhibition at 10 µM at 5-HT1A [1] of 47%. The compound also had an IC50 on 5-HT1A [2] of 5.2 nM.

On 5-HT1A [1], `COCCn1c(=O)n(C/C=C/CN2CCN(c3cccc(C(F)(F)F)c3)CC2)c2ccccc21` [Compound 301] had an inhibition at 10 µM of 83%. The IC50 on 5-HT1A [2] (setting [5]) worked out at 2.6 nM.

`O=c1n(C/C=C/CN2CCN(c3cccc(Cl)c3)CC2)c2ccccc2n1CCN1CCOCC1` [Compound 348] came in with an inhibition at 10 µM at 5-HT1A [1] of 57%. Moreover, the IC50 at 5-HT1A [2] (setting [5]) was determined as 3.5 nM.

On to `O=c1n(C/C=C/CN2CCN(c3cccc(Cl)c3)CC2)c2ccccc2n1CCO` [Compound 382], for which the inhibition at 0.1 µM at D4 human receptors is 39%; at 5-HT1A [2] (CHO membranes, human 5-HT1A) it was 88%. Besides, at 5-HT1A [1], the inhibition at 10 µM worked out at 64%. Moreover, the IC50 at 5-HT1A [2] (setting [5]) worked out at 11 nM.

`O=c1n(C/C=C/CN2CCN(c3cccc(C(F)(F)F)c3)CC2)c2ccccc2n1CCO` [Compound 386]: the inhibition at 10 µM on 5-HT1A [1] amounted to 82%. In addition, at 5-HT1A [2] (setting [5]), the IC50 was found to be 6.7 nM.

`CCNC(=O)OCCn1c(=O)n(C/C=C\CN2CCN(c3cccc(C(F)(F)F)c3)CC2)c2ccccc21` [Compound 403]: the inhibition at 10 µM against 5-HT1A [1] came to 84%. The IC50 on 5-HT1A [2] (setting [5]) was 5.5 nM.

As to `CCNC(=O)OCCn1c(=O)n(C/C=C\CN2CC=C(c3ccccc3)CC2)c2ccccc21` [Compound 404], the inhibition at 0.1 µM was 34% on D4 human receptors and 95% at 5-HT1A [2] (CHO membranes, human 5-HT1A). This compound also showed an inhibition at 10 µM on 5-HT1A [1] of 60%. In addition, the IC50 on 5-HT1A [2] (setting [5]) stood at 2.1 nM.

In turn, `CCNC(=O)OCCn1c(=O)n(C/C=C/CN2CCN(c3cccc(C(F)(F)F)c3)CC2)c2ccccc21` [Compound 420] had an inhibition at 10 µM at 5-HT1A [1] of 87%. Moreover, the IC50 on 5-HT1A [2] (setting [5]) was determined as 1.8 nM.

In the case of `CCNC(=O)OCCn1c(=O)n(C/C=C/CN2CC=C(c3ccccc3)CC2)c2ccccc21` [Compound 421], at 5-HT1A [1], testing at 10 µM gave an inhibition of 56%. Moreover, on 5-HT1A [2] (setting [5]), the IC50 turned out to be 0.66 nM.

`CC(=O)NCCn1c(=O)n(C/C=C/CN2CCN(c3cccc(C(F)(F)F)c3)CC2)c2ccccc21` [Compound 481] showed an inhibition at 10 µM against 5-HT1A [1] of 82%. Further, on 5-HT1A [2] (setting [5]), the IC50 stood at 11 nM.

`CS(=O)(=O)NCCn1c(=O)n(C/C=C\CN2CCN(c3cccc(Cl)c3)CC2)c2ccccc21` [Compound 499] displayed an inhibition at 10 µM against 5-HT1A [1] of 74%. At 5-HT1A [2] (setting [5]), the IC50 amounted to 5 nM.

For the compound `Cc1cccc(N2CCN(C/C=C\Cn3c(=O)n(CCNS(C)(=O)=O)c4ccccc43)CC2)c1` [Compound 514], on 5-HT2A [3], the “5-HT2A PI Turnover % inhibition” value came out at 41%. Further, the IC50 worked out at 74 nM at 5-HT2A [4] and 7.9 nM on 5-HT1A [2] (setting [5]). For the same compound, the inhibition at 10 µM at 5-HT1A [1] was 67%.

As to `CS(=O)(=O)NCCn1c(=O)n(C/C=C/CN2CCN(c3cccc(Cl)c3)CC2)c2ccccc21` [Compound 521], at 5-HT2A [3], the “5-HT2A PI Turnover % inhibition” value amounted to 48%. Further, the IC50 at 5-HT2A [4] came to 30 nM; at 5-HT1A [2] (setting [5]) it was 0.61 nM. For the same compound, on 5-HT1A [1], 10 µM produced 67% inhibition.

On 5-HT1A [1], `CS(=O)(=O)NCCn1c(=O)n(C/C=C/CN2CCN(c3cccc(C(F)(F)F)c3)CC2)c2ccccc21` [Compound 525] showed an inhibition at 10 µM of 87%. Moreover, the IC50 on 5-HT1A [2] (setting [5]) came to 1.5 nM.
